# Experimental data published in BigSolDB 2.1.
"solubility (mole fraction) (in acetonitrile, 283.1 K)","solubility (mole fraction) (in acetonitrile, 293.1 K)","solubility (mole fraction) (in acetonitrile, 303.1 K)","solubility (mole fraction) (in acetonitrile, 313.1 K)","solubility (mole fraction) (in acetonitrile, 323.1 K)","solubility (mole fraction) (in ethyl acetate, 283.1 K)","solubility (mole fraction) (in ethyl acetate, 293.1 K)","solubility (mole fraction) (in ethyl acetate, 303.1 K)","solubility (mole fraction) (in ethyl acetate, 313.1 K)","solubility (mole fraction) (in ethyl acetate, 323.1 K)","solubility (mole fraction) (in methanol, 283.1 K)","solubility (mole fraction) (in methanol, 293.1 K)","solubility (mole fraction) (in methanol, 303.1 K)","solubility (mole fraction) (in methanol, 313.1 K)","solubility (mole fraction) (in methanol, 323.1 K)","solubility (mole fraction) (in water, 283.1 K)","solubility (mole fraction) (in water, 293.1 K)","solubility (mole fraction) (in water, 303.1 K)","solubility (mole fraction) (in water, 313.1 K)","solubility (mole fraction) (in water, 323.1 K)",Compound
8.28e-05,0.000105,0.000127,0.000183,0.000292,5.08e-05,7.12e-05,0.000129,0.000175,0.00025,0.00635,0.00892,0.0132,0.0209,0.0309,9.7e-06,1.45e-05,2.02e-05,3.18e-05,5.09e-05,C=CC1=C(C(=O)O)N2C(=O)[C@@H](NC(=O)/C(=N\OCC(=O)O)c3csc(N)n3)[C@H]2SC1.O.O.O
0.000187,0.000324,0.000599,0.00091,0.00137,6.77e-05,0.000104,0.000155,0.000218,0.000318,0.00194,0.00348,0.0052,0.00775,0.0114,0.00184,0.00227,0.0031,0.00414,0.00532,Cc1c(O)c(=O)ccn1C
